Data reported in ChEMBL document CHEMBL1201862, “PubChem BioAssay data set” (2004).
Calls of active or inactive are those of the source.

What was measured:
Jurkat = test: blockers of NF-kB activation in T cells – Jurkat, luciferase reporter, luminescence, B- and T-cell, dose response (AID 489004); format: functional, cell-based; details: Homo sapiens;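 also: NF-kB luciferase reporter Jurkat cells stimulated with PMA plus ionomycin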
[1] = target: T1, Replicative DNA helicase DnaB (Mycobacterium tuberculosis, UniProt P9WMR3); test: DnaB intein splicing inhibitors, dose response, biochemical, cell-free fluorescence (AID 449749); format: functional
T1 sequence (P9WMR3 whole entry): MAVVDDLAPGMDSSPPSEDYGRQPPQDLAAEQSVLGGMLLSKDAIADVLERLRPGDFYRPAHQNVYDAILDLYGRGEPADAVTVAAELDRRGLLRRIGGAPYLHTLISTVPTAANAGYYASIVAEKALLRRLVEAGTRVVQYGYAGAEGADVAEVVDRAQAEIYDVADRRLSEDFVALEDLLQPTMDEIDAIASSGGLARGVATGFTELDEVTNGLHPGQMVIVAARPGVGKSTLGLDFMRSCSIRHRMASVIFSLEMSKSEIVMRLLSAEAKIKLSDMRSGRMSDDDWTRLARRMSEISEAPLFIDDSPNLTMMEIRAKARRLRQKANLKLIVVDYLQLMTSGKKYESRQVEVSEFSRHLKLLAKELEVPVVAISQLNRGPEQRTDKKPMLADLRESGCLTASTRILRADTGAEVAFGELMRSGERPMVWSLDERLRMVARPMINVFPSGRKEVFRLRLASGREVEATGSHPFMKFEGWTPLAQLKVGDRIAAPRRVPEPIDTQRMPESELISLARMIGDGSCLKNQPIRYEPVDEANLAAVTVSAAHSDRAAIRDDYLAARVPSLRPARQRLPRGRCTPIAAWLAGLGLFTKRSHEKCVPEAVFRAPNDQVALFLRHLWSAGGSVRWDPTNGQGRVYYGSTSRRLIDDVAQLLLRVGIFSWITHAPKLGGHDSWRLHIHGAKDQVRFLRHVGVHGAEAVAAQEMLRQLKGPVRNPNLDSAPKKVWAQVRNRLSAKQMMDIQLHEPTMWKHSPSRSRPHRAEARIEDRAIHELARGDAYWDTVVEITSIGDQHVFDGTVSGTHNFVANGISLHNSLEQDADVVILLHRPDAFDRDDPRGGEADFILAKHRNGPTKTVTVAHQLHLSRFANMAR

Protein RecA = target: T2, Protein RecA (Mycobacterium tuberculosis, UniProt P9WHJ3); test: Fluorescence Cell-Free Homogeneous Dose Retest to Identify Inhibitors of RecA-Intein Splicing Activity. [Related pubchem assays (depositor defined):AID2097, AID2223, AID489010, AID492950]; format: functional
T2 sequence (P9WHJ3 whole entry): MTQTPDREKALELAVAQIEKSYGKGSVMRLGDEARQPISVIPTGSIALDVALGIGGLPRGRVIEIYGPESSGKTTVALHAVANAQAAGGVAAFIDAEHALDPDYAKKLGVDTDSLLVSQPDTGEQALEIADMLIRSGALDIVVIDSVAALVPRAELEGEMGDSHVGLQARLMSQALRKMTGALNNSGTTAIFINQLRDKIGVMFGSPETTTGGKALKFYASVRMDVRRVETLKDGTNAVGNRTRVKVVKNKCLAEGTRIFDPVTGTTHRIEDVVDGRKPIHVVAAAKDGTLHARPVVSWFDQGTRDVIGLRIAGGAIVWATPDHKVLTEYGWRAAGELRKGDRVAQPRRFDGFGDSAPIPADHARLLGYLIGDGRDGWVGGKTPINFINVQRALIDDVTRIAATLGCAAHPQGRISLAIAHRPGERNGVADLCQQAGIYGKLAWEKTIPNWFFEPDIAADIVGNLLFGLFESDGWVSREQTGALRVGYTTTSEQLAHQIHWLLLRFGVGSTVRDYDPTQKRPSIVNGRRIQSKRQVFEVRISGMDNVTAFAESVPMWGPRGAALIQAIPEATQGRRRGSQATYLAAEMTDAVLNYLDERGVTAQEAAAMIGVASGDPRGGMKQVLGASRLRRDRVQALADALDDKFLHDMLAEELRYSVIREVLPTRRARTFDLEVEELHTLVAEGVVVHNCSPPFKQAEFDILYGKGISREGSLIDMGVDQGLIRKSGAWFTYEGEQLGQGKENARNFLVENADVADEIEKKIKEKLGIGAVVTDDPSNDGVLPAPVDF

[2] = viability loss in CEM21 cells – cell-based, CellTiter-Glo luminescence, cherry-picked, cytotoxicity control for viral fusion inhibitor project, dose response (AID 652042); format: functional;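 also: potency for signal decrease meaning cytotoxicity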
[3] = target: Lysine-specific demethylase 4A (Homo sapiens, UniProt O75164); test: inhibition of JMJD2A H3K9me3 demethylation – biochemical, DELFIA europium, cherry-picked samples, selectivity assay for GASC-1 inhibitor project, dose response (AID 488840)
Sequence of Lysine-specific demethylase 4A (O75164 whole entry): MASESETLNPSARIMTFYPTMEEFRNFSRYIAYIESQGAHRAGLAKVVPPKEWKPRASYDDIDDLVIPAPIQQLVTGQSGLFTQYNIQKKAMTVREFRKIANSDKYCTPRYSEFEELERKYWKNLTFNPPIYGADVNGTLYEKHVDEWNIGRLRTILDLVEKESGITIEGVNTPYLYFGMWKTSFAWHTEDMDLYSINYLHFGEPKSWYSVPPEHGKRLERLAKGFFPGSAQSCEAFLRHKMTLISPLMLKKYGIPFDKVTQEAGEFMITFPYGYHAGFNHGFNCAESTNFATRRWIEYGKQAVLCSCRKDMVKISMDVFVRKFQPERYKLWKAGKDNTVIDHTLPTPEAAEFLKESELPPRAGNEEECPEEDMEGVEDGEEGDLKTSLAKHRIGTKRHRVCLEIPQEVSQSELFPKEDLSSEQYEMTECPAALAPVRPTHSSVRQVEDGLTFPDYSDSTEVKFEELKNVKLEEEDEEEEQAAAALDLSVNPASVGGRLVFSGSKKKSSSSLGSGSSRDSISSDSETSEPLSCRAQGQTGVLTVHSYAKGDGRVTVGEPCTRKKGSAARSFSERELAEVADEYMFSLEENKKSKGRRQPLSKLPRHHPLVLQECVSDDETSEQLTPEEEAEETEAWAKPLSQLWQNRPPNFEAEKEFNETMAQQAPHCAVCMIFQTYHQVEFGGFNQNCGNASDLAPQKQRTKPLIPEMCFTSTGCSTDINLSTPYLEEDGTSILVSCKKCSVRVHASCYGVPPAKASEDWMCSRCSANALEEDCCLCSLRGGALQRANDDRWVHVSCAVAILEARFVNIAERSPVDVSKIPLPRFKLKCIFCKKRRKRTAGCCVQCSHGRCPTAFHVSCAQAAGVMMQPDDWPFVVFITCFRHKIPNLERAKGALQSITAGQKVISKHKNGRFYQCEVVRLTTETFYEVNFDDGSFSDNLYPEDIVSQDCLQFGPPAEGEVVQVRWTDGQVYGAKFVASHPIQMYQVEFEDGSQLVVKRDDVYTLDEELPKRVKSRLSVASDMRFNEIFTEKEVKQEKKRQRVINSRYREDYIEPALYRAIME

Fatty acid synthase [4] = target: T3, Fatty acid synthase (Homo sapiens, UniProt P49327); test: inhibition of human FAS-TE enzyme activity – biochemical, endpoint fluorescence intensity, uHTS hits, dose response (AID 624327); format: functional;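 also: fluorescence from hydrolysis of an O-methyl fluorescein acyl ester substrate by the enzyme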
T3 sequence (P49327 whole entry): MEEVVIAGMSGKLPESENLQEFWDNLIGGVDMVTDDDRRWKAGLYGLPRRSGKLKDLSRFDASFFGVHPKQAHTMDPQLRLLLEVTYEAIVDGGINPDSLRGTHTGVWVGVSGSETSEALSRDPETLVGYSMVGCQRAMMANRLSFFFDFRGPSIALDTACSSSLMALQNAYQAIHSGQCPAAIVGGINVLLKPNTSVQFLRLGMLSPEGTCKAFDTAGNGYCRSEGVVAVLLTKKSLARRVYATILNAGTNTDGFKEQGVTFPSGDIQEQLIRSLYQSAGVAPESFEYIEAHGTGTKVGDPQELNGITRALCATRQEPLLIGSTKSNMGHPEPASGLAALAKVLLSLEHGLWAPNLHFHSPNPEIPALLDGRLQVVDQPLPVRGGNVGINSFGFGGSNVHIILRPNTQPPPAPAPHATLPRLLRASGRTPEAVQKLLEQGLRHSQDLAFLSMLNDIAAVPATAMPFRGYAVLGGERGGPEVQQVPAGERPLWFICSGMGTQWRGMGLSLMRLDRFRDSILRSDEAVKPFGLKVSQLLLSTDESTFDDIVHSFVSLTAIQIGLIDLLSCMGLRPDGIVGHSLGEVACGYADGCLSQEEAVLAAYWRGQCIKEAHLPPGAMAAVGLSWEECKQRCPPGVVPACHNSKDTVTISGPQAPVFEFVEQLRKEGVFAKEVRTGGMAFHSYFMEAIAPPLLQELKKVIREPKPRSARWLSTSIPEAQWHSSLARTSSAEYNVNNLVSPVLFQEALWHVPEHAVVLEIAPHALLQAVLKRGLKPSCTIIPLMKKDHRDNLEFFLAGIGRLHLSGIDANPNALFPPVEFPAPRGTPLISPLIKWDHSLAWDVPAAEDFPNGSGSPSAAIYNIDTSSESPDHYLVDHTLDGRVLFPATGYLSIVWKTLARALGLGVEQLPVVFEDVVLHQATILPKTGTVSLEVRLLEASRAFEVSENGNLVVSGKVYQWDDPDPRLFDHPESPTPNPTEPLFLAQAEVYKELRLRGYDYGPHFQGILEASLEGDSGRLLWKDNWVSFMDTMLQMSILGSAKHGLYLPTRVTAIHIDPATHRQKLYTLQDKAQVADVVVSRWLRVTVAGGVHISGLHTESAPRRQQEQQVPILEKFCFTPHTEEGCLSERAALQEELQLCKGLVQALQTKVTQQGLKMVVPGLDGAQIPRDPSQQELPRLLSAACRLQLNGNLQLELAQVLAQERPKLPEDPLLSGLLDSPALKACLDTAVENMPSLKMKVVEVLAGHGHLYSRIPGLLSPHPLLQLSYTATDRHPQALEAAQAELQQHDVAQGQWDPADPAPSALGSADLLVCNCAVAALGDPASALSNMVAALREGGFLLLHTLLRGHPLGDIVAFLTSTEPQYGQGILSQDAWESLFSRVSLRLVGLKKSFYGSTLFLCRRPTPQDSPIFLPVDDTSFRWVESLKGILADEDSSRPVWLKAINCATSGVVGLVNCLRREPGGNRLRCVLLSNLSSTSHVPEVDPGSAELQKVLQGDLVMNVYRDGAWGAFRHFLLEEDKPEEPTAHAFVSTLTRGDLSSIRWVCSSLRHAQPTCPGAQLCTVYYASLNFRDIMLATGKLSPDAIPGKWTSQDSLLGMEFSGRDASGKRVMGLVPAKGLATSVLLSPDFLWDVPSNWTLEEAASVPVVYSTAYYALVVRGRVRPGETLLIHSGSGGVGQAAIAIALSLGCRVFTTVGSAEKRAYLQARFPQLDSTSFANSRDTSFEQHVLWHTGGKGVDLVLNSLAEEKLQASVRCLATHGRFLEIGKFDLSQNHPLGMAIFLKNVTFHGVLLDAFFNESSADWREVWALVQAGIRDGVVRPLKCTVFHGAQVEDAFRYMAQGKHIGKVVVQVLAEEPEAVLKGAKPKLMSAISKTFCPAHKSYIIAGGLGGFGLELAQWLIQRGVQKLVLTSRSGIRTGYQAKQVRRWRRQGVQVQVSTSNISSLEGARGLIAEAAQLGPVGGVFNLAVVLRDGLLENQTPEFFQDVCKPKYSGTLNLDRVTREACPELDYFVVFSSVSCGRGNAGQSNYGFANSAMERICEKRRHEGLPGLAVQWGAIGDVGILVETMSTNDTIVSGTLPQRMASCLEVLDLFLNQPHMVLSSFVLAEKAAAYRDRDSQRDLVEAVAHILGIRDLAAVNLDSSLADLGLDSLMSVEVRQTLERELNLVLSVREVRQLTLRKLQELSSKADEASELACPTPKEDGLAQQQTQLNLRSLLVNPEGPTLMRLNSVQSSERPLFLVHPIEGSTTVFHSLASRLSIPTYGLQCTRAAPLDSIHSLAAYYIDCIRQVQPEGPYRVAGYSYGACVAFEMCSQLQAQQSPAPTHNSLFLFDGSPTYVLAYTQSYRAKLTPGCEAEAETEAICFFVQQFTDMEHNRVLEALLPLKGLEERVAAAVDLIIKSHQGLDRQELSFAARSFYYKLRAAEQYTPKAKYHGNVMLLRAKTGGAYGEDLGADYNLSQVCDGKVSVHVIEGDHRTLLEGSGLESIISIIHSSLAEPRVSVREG

Fatty acid synthase [5] = target: T3, Fatty acid synthase; test: inhibition of human FAS-TE enzyme activity – biochemical, kinetic fluorescence intensity, dose response (AID 624326); format: functional;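 also: rate of fluorescence rise from hydrolysis of a fluorogenic O-methyl fluorescein ester substrate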
[6] = target: Matrix metalloproteinase-14 (Homo sapiens, UniProt P50281); test: Dose Response confirmation of uHTS hits for a small molecule inhibitors of MT1-MMP activation in a fluorescence assay set 2.; format: functional
Caspase-7 = target: T4, Caspase-7 (Homo sapiens, UniProt P55210); test: caspase-7 enzyme inhibition, selectivity check – biochemical, DEVD-R110 fluorescence, cherry-pick, selectivity assay for caspase-6 inhibitor project, dose response (AID 743295); format: functional
T4 sequence (P55210 whole entry): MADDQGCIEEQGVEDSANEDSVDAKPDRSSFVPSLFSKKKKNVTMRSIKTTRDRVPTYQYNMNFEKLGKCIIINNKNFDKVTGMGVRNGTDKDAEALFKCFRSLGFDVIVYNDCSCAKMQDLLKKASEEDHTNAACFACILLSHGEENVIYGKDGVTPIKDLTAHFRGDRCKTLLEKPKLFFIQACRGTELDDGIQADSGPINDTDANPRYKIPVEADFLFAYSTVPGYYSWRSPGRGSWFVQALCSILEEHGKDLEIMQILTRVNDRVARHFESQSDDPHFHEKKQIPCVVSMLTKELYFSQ

[7] = target: 1-phosphatidylinositol 4,5-bisphosphate phosphodiesterase beta-3 (Homo sapiens, UniProt Q01970); test: Fluorescence-based biochemical high throughput dose response assay to identify inhibitors of phospholipase C isozymes (PLC-B3).
Sequence of 1-phosphatidylinositol 4,5-bisphosphate phosphodiesterase beta-3 (Q01970 whole entry): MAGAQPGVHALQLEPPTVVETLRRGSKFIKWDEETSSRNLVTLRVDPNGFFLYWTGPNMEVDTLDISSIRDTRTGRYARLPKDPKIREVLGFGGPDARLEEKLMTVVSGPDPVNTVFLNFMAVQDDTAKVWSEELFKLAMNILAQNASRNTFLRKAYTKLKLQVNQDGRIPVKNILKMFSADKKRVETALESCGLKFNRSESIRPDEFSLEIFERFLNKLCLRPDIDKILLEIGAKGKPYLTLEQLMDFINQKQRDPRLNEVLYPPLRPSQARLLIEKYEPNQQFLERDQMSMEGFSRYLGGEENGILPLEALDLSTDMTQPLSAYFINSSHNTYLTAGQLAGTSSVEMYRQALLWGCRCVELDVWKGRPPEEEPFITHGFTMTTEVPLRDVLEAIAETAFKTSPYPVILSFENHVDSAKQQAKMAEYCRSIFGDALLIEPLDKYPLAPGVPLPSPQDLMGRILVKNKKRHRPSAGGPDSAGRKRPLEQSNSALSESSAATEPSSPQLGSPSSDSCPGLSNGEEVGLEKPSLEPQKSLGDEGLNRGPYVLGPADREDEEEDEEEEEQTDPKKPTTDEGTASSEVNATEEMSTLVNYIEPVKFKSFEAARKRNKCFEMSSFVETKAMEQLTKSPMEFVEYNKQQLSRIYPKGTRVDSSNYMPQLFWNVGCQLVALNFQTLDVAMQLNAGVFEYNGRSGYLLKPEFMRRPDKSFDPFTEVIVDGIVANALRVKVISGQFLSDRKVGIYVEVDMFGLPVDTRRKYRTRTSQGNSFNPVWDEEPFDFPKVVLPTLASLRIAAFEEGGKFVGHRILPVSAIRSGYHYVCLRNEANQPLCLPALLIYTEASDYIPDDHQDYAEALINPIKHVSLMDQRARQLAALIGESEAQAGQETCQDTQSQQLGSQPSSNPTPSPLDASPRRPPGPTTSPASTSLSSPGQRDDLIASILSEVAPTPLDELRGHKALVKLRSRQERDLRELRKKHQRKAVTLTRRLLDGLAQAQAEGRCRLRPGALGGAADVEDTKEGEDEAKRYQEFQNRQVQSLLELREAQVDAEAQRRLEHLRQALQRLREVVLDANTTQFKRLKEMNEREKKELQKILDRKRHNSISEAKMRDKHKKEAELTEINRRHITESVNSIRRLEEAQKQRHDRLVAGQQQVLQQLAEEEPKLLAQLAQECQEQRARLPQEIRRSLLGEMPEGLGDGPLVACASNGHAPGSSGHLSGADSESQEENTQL

CCCCCCCCCCOC(=O)C[n+]1c(COc2ccccc2OC)n(C)c2ccccc21
active: IC50 (Jurkat) 4.4 µM | AC50 [1] 3.92 µM | EC50 (Protein RecA) 8.91 µM | AC50 [2] 6.91 µM

O=c1ccc2c(-c3ccccc3S(=O)(=O)O)c3ccc(O)c(O)c3oc-2c1O [PYROGALLOL RED]
inactive: AC50 (Caspase-7) > 70 µM | IC50 [7] > 40.8 µM
active: AC50 [3] 2.63 µM | IC50 (Fatty acid synthase [4]) 16.2 µM | IC50 (Fatty acid synthase [5]) 10.4 µM | IC50 [6] 19.6 µM
